Experimental data reported in PubChem BioAssay AID248 (DTP/NCI, 2004).
“And” between values parts separate entries of the source, which are not always exact repeats. Identical values can stand only once. Toxic doses and inconclusive results are not listed. No stated cut-off is given here; in the data, active means T/C of 150% or more; inactive means T/C below 125%. Square brackets hold non-standard residues; d marks the D form. Peptide text beside a SMILES is read from it. * marks the point of attachment. ξ: configuration not given here. Cbz = O=C(OCc1ccccc1)*; ξM = CSCCC(N)C(=O)O

Tested on: L1210 leukemia ip in BDF1 mice, survival T/C
Test: NCI In Vivo Anticancer Drug Screen. Data for tumor model L1210 Leukemia (intraperitoneal) in B6D2F1 (BDF1) mice
Conditions: endpoint: mean survival time, higher = longer survival
How it was run: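 Tumor cells were implanted, animals were treated, and survival was followed. The result divides the treated measurement by the vehicle-control measurement.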

[1] = dose: 50.0 mg/kg/injection, schedule: Q01DX001 (ip), vehicle: saline
[2] = dose: 100.0 mg/kg/injection, schedule: Q01DX001 (ip), vehicle: saline
[3] = dose: 200.0 mg/kg/injection, schedule: Q01DX001 (ip), vehicle: saline
[4] = dose: 400.0 mg/kg/injection, schedule: Q01DX001 (ip), vehicle: saline
[5] = dose: 75.0 mg/kg/injection, schedule: Q01DX001 (ip), vehicle: saline
[6] = dose: 150.0 mg/kg/injection, schedule: Q01DX001 (ip), vehicle: saline
[7] = dose: 100.0 mg/kg/injection, schedule: Q01DX001 (ip), vehicle: carboxymethylcellulose (CMC)
[8] = dose: 200.0 mg/kg/injection, schedule: Q01DX001 (ip), vehicle: carboxymethylcellulose (CMC)
[9] = dose: 400.0 mg/kg/injection, schedule: Q01DX001 (ip), vehicle: carboxymethylcellulose (CMC)
[10] = dose: 100.0 mg/kg/injection, schedule: Q04DX003 (ip), vehicle: saline with Tween-80
[11] = dose: 200.0 mg/kg/injection, schedule: Q04DX003 (ip), vehicle: saline with Tween-80
[12] = dose: 400.0 mg/kg/injection, schedule: Q04DX003 (ip), vehicle: saline with Tween-80
[13] = dose: 100.0 mg/kg/injection, schedule: Q01DX001 (ip), vehicle: saline with Tween-80
[14] = dose: 200.0 mg/kg/injection, schedule: Q01DX001 (ip), vehicle: saline with Tween-80
[15] = dose: 400.0 mg/kg/injection, schedule: Q01DX001 (ip), vehicle: saline with Tween-80

Measured: T/C

CCOC(=O)/C(C#N)=C(/C)C1CC1
inactive: dose: 6.25 mg/kg/injection, schedule: Q01DX009 (ip), vehicle: Klucel (hydroxypropylcellulose) (HPC) 95 % of control | dose: 12.5 mg/kg/injection, schedule: Q01DX009 (ip), vehicle: Klucel (hydroxypropylcellulose) (HPC) 105 % of control | dose: 25.0 mg/kg/injection, schedule: Q01DX009 (ip), vehicle: Klucel (hydroxypropylcellulose) (HPC) 97 % of control | dose: 75.0 mg/kg/injection, schedule: Q01DX001 (ip), vehicle: carboxymethylcellulose (CMC) 95 % of control | dose: 150.0 mg/kg/injection, schedule: Q01DX001 (ip), vehicle: carboxymethylcellulose (CMC) 105 % of control

N#Cc1nn(CCCl)c(=O)c2ccccc12
inactive: dose: 100.0 mg/kg/injection, schedule: Q01DX001 (ip), vehicle: alcohol 98 % of control | dose: 100.0 mg/kg/injection, schedule: Q04DX003 (ip), vehicle: alcohol 95 % of control | dose: 200.0 mg/kg/injection, schedule: Q01DX001 (ip), vehicle: alcohol 107 % of control | dose: 200.0 mg/kg/injection, schedule: Q04DX003 (ip), vehicle: alcohol 97 % of control | dose: 400.0 mg/kg/injection, schedule: Q01DX001 (ip), vehicle: alcohol 107 % of control | dose: 400.0 mg/kg/injection, schedule: Q04DX003 (ip), vehicle: alcohol 87 % of control

CCCCCCCCCCCCCCCCCCNC(=O)Nc1ccc(OC)cc1OC
inactive: dose: 100.0 mg/kg/injection, schedule: Q04DX002 (ip), vehicle: Klucel (hydroxypropylcellulose) (HPC) 101 % of control | dose: 200.0 mg/kg/injection, schedule: Q04DX002 (ip), vehicle: Klucel (hydroxypropylcellulose) (HPC) 90 % of control | dose: 400.0 mg/kg/injection, schedule: Q04DX002 (ip), vehicle: Klucel (hydroxypropylcellulose) (HPC) 90 % of control

CCOC(=O)NP(=O)(NC(=O)OCC)NC(=O)OCC
inactive: [1] 106 % of control | [2] 104 % of control | [3] 93 % of control | [4] 106 % of control

COc1cc2c(cc1OC)-c1c([O-])c3cc(OC)c(OC)cc3n[n+]1CC2
inactive: [5] 98 % of control | [6] 86 % of control | dose: 300.0 mg/kg/injection, schedule: Q01DX001 (ip), vehicle: saline 89 % of control

CO/N=C(\N)Oc1c(C)cccc1C
inactive: dose: 100.0 mg/kg/injection, schedule: Q01DX009 (ip), vehicle: Klucel (hydroxypropylcellulose) (HPC) 107 % of control | dose: 200.0 mg/kg/injection, schedule: Q01DX009 (ip), vehicle: Klucel (hydroxypropylcellulose) (HPC) 96 % of control | dose: 400.0 mg/kg/injection, schedule: Q01DX009 (ip), vehicle: Klucel (hydroxypropylcellulose) (HPC) 103 % of control

CCCCCCCCCCCCCCCCCC1=Nc2cc(C)c(C)cc2NC(=O)C1
inactive: [7] 93 % of control | [8] 88 % of control | [9] 86 % of control

NC(=S)N/N=C/c1ccc(C2CCNCC2)cc1
inactive: dose: 15.0 mg/kg/injection, schedule: Q01DX Z (ip), vehicle: methylcellulose (MC) 102 % of control | dose: 30.0 mg/kg/injection, schedule: Q01DX Z (ip), vehicle: methylcellulose (MC) 92 % of control | dose: 60.0 mg/kg/injection, schedule: Q01DX Z (ip), vehicle: methylcellulose (MC) 104 % of control | dose: 120.0 mg/kg/injection, schedule: Q01DX Z (ip), vehicle: methylcellulose (MC) 104 % of control

O=C(C(=O)c1ccc(Cl)cc1)c1ccc(Cl)cc1
inactive: dose: 1.56 mg/kg/injection, schedule: Q01DX009 (ip), vehicle: other 106 % of control | dose: 3.13 mg/kg/injection, schedule: Q01DX009 (ip), vehicle: other 95 % of control | dose: 6.25 mg/kg/injection, schedule: Q01DX009 (ip), vehicle: other 97 % of control and 92 % of control | dose: 25.0 mg/kg/injection, schedule: Q01DX009 (ip), vehicle: other 88 % of control | dose: 50.0 mg/kg/injection, schedule: Q01DX001 (ip), vehicle: carboxymethylcellulose (CMC) 94 % of control | [7] 94 % of control | [10] 86 % of control | [8] 89 % of control | [11] 88 % of control | [9] 92 % of control | [12] 88 % of control

O=C1C(=O)C2(O)C(=O)C12O (stereo not drawn)
inactive: dose: 100.0 mg/kg/injection, schedule: Q04DX003 (ip), vehicle: saline 91 % of control

COC(=O)C(CCSC)NC(=O)CNC(=O)CNC(=O)OCc1ccccc1 (stereo not drawn) (Cbz-Gly-Gly-[ξM]-OMe)
inactive: [10] 106 % of control | [11] 101 % of control | [12] 95 % of control

CC(C)CC1(C(C)C)C(=O)NC(=O)NC1=O
inactive: [5] 89 % of control | [6] 98 % of control

COc1cc(C)c2ccccc2n1
inactive: [13] 100 % of control | [2] 104 % of control | [14] 102 % of control | [3] 103 % of control | [15] 94 % of control | [4] 98 % of control

CCc1cc(CC)c(S(=O)(=O)O)c(CC)c1CC
inactive: dose: 100.0 mg/kg/injection, schedule: Q01DX009 (ip), vehicle: saline 90 % of control

Clc1nc2ncn3ncnc3c2[nH]1
inactive: [13] 104 % of control | [14] 101 % of control | [15] 92 % of control

CN(C)C1=C(Cl)C(=O)c2ccccc2C1=O
inactive: [1] 102 % of control | [2] 100 % of control

COc1cc(-c2c3c(cc4c2OCO4)CC(O)C(C(=O)O)C3)cc(OC)c1OC (stereo not drawn)
inactive: [5] 95 % of control | [6] 116 % of control | dose: 200.0 mg/kg/injection, schedule: Q01DX001 (ip), vehicle: Klucel (hydroxypropylcellulose) (HPC) 109 % of control | [3] 114 % of control | dose: 300.0 mg/kg/injection, schedule: Q01DX001 (ip), vehicle: Klucel (hydroxypropylcellulose) (HPC) 116 % of control

O=C(Nc1ccc(Cl)cc1)Nc1ccc(Cl)c(C(F)(F)F)c1
inactive: [7] 108 % of control | [8] 111 % of control | [9] 111 % of control

CC(=O)[O][Hg][c]1sc2ccccc2c1C
inactive: dose: 0.5 mg/kg/injection, schedule: Q01DX015 (ip), vehicle: other 106 % of control | dose: 1.0 mg/kg/injection, schedule: Q01DX015 (ip), vehicle: other 98 % of control | dose: 1.5 mg/kg/injection, schedule: Q04DX003 (ip), vehicle: saline 103 % of control | dose: 2.0 mg/kg/injection, schedule: Q01DX015 (ip), vehicle: other 98 % of control | dose: 2.12 mg/kg/injection, schedule: Q01DX009 (ip), vehicle: saline with Tween-80 98 % of control | dose: 3.0 mg/kg/injection, schedule: Q01DX001 (ip), vehicle: acetone 101 % of control | dose: 3.0 mg/kg/injection, schedule: Q04DX003 (ip), vehicle: saline 95 % of control | dose: 4.0 mg/kg/injection, schedule: Q01DX015 (ip), vehicle: other 96 % of control | dose: 4.25 mg/kg/injection, schedule: Q01DX009 (ip), vehicle: saline with Tween-80 95 % of control | dose: 6.0 mg/kg/injection, schedule: Q01DX001 (ip), vehicle: acetone 95 % of control | dose: 6.0 mg/kg/injection, schedule: Q04DX003 (ip), vehicle: saline 98 % of control | dose: 8.5 mg/kg/injection, schedule: Q01DX009 (ip), vehicle: saline with Tween-80 98 % of control | dose: 8.5 mg/kg/injection, schedule: Q04DX003 (ip), vehicle: acetone 98 % of control | dose: 12.0 mg/kg/injection, schedule: Q01DX001 (ip), vehicle: acetone 86 % of control | dose: 12.0 mg/kg/injection, schedule: Q01DX009 (ip), vehicle: saline with Tween-80 95 % of control and 88 % of control | dose: 19.0 mg/kg/injection, schedule: Q01DX009 (ip), vehicle: saline with Tween-80 92 % of control | dose: 28.0 mg/kg/injection, schedule: Q01DX009 (ip), vehicle: saline with Tween-80 106 % of control

O=CNc1cc([N+](=O)[O-])cc([N+](=O)[O-])c1O
inactive: dose: 100.0 mg/kg/injection, schedule: Q04DX003 (ip), vehicle: Klucel (hydroxypropylcellulose) (HPC) 104 % of control | dose: 200.0 mg/kg/injection, schedule: Q04DX003 (ip), vehicle: Klucel (hydroxypropylcellulose) (HPC) 100 % of control | dose: 400.0 mg/kg/injection, schedule: Q04DX003 (ip), vehicle: Klucel (hydroxypropylcellulose) (HPC) 93 % of control
